Laboratory results from patent publication US7674819B2 (Warner-Lambert Company LLC, priority 2005, dated 2010).
Like-named read-outs stand apart in the source and are kept apart here.

Tests used:
male Syrian hamsters = test: Animal Model for Inhibition of Sebum Production (hamster ear, HPLC of sebum lipids); type: in vivo, Syrian hamster; settings: twice daily, five days a week, 4 weeks; for % CE reduction: cholesterol ester vs vehicle control; for % WE reduction: wax ester vs vehicle control
Protocol: Luderschmidt et al describes an animal model for testing whether compounds are capable of modulating sebum secretion. Arch. Derm. Res. 258, 185-191 (1977). This model uses male Syrian hamsters, whose ears contain sebaceous glands. Based on binding data and cellular assay data, selected compounds were chosen for screening in this model. Those compounds included the products of Examples 1, 20, 81, 82, and 109.
Testing for sebum inhibition was carried out in the following manner. Male Syrian hamsters aged 9 to 10 weeks were introduced into the laboratory environment and acclimated for 2 weeks prior to use in the study. Each group consisted of 5 animals and run in parallel with vehicle and positive controls. Prior to administration, a sufficient quantity each compound was dissolved in 1 mL of a solvent consisting of ethanol, transcutol, and propylene glycol (60/20/20% v/v/v) to achieve the final concentration specified in Table VIII below.
Animals were dosed topically twice daily, five days a week, for 4 weeks. Each dose consisted of 25 micro liters of vehicle control or drug. The dose was applied to the ventral surfaces of both the right and left ears. All animals were sacrificed approximately 18-24 hours after the final dose. The right ears were collected from each animal and used for sebum analysis.
The ears were prepped for HPLC analysis in the following manner. One 8 mm distal biopsy punch was taken, just above the anatomical “V” mark in the ear to normalize the sample area. The punch was pulled apart. The ventral biopsy surface (the area where the topical dose was directly applied to the sebaceous glands) was retained for testing and the dorsal surface of the biopsy punch was discarded.
Tissue samples were blown with N2 gas and stored at −80° C. under nitrogen until HPLC analysis. In addition to ear samples, an aliquot of each drug and vehicle (at least 250 ul) was also stored at −80° C. for inclusion in the HPLC analysis.
HPLC analysis was carried out on an extract of the tissue sample. Tissue samples were contacted with 3 ml of solvent (a 4:1 admixture of 2,2,4-trimethylpentane and isopropyl alcohol). The mixture was shaken for 15 minutes and stored overnight at room temperature, protected from light. The next morning 1 milliliter of water was added to the sample and shaken for 15 minutes. The sample was then centrifuged at approximately 1500 rpm for 15 minutes. Two ml of the organic phase (top layer) was transferred to a glass vial, dried at 37° C., under nitrogen, for approximately 1 hour, and then lyophilized for approximately 48 hours. The samples were then removed from the lyophilizer and each vial was reconstituted with 600 μl of solvent A (trimethylpentane/tetrahydrofuran (99:1). The samples were then recapped and vortexed for 5 minutes.
200 μl of each sample was then transferred to a pre-labeled 200 μl HPLC vial with 200 μL glass inserts. The HPLC vials were placed in the autosampler tray for the Agilent 1100 series HPLC unit. The Agilent 1100 HPLC system consisted of a thermostated autosampler, a quaternary pump, a column heater, and an A/D interface module. All components were controlled by Agilent ChemStation software. A Waters Spherisorb S3W 4.6×100 mm analytical column was maintained at 30° C. by the Agilent column heater unit.
The HPLC autosampler was programmed to maintain the sample temperature at 20 C throughout the run.
10 uL of each sample was injected in triplicate into the column. Two solvents were used for the solvent gradient. Solvent A was an admixture of trimethylpentane and tetrahydrofuran (99:1). Solvent B was ethylacetate. The gradient utilized is described in the table below: […]
The Sedex 75 Evaporative Light Scattering Detector (ELSD) was operated at 45° C. with a gain of 5, and N2 pressure maintained at 3.1 bar. Analog signal obtained by the instrument was sent to the Agilent A/D interface module where it was converted to a digital output. […]

hAR = target: T1, hAR (Homo sapiens, UniProt P10275); test: Competitive binding of 3H-DHT to baculovirus/Sf9 generated hAR extracts; settings: one hour at 4° C., mean of multiple tests
T1 sequence (P10275 1-920): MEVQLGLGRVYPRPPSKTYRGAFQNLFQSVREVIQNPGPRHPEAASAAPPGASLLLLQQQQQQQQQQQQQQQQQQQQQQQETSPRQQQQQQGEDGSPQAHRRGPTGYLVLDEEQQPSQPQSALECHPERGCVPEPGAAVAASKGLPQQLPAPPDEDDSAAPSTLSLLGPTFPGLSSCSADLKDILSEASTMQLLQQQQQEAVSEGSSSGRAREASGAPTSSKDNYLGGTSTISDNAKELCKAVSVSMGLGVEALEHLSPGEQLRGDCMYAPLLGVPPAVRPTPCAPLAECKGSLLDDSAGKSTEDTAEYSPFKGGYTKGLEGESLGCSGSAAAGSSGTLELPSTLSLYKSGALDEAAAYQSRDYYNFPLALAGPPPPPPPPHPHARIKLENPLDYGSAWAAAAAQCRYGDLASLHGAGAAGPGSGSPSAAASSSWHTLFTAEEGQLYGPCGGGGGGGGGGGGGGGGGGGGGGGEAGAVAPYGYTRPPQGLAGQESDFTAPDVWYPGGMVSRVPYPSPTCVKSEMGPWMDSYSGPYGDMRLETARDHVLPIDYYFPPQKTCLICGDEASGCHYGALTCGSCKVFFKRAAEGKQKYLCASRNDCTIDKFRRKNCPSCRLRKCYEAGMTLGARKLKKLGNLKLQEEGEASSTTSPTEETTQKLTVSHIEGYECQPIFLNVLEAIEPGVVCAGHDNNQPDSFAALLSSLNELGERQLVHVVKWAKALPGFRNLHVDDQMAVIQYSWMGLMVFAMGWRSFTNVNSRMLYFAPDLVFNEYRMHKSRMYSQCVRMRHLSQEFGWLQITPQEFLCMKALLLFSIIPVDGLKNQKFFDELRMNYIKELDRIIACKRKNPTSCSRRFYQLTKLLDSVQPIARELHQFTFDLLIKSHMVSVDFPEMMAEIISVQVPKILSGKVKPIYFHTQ
Method in brief: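 Baculovirus/Sf9-expressed hAR extract incubated with test compound, hydroxylapatite and 1 nM 3H-DHT tracer for 1 h at 4° C, then washed free of unbound tracer. Affinity given as concentration inhibiting half of maximal 3H-DHT binding.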

[1] = IC50, concentration at which one half of maximum binding of 1 nM 3H-DHT to hAR is inhibited
[2] = concentration at which one half of maximum binding of 1 nM 3H-DHT to hAR is inhibited, read-out: IC50

SMILES | % CE reduction (male Syrian hamsters; topical 2%) | Sum of WE & CE (male Syrian hamsters; topical 2%) | % WE reduction (male Syrian hamsters; topical 2%) | IC50 (hAR; [1]) | % CE reduction (male Syrian hamsters; topical 1%) | Sum of WE & CE (male Syrian hamsters; topical 1%) | % WE reduction (male Syrian hamsters; topical 1%) | % CE reduction (male Syrian hamsters; topical 3%) | Sum of WE & CE (male Syrian hamsters; topical 3%) | % WE reduction (male Syrian hamsters; topical 3%) | IC50 (hAR; [2])
CCCCN1CC(C)(C)C(Oc2ccc(C#N)c(C(F)(F)F)c2)C1=O (single isomer, unassigned; (+)) [Example 20, (+)-4-(1-Butyl-4,4-dimethyl-2-oxo-pyrrolidin-3-yloxy)-2-trifluoromethyl-benzonitrile] | 83% | 149 | 66% | 0.097 µM | – | – | – | – | – | – | –
CCCS(=O)(=O)N1CC(C)(C)C(Oc2ccc(C#N)c(C(F)(F)F)c2)C1=O (single isomer, unassigned; (+)) [Example 82, (+)-4-[4,4-Dimethyl-2-oxo-1-(propane-1-sulfonyl)-pyrrolidin-3-yloxy]-2-trifluoromethyl-benzonitrile] | – | – | – | 0.047 µM | 72% | 129 | 57% | – | – | – | –
CC[C@H](C)N1CC(C)(C)[C@@H](Oc2ccc(C#N)c(C(F)(F)F)c2)C1=O [Example 1, (3R,S)-(+)-4-(1-sec-Butyl-4,4-dimethyl-2-oxo-pyrrolidin-3-yloxy)-2-trifluoromethyl-benzonitrile] | – | – | – | 0.136 µM | 70% | 125 | 55% | – | – | – | –
CCCN1CC(C)(C)C(Oc2ccc(C#N)c(C(F)(F)F)c2)C1=O (stereo not shown) [Example 4, 4-(4,4-dimethyl-2-oxo-1-propyl-pyrrolidin-3-yloxy)-2-trifluoromethyl-benzonitrile] | – | – | – | 0.188 µM | – | – | – | 76% | 166 | 90% | –
CCCN1CC(C)(C)[C@@H](Oc2ccc(C#N)c(C(F)(F)F)c2)C1=O [Example 4A, (+)-4-(1-Propyl-4,4-dimethyl-2-oxo-pyrrolidin-3-yloxy)-2-trifluoromethyl-benzonitrile (E2)] | – | – | – | 0.23 µM | 76% | 161 | 85% | – | – | – | –
CC1(C)CN(S(C)(=O)=O)C(=O)C1Oc1ccc(C#N)c(C(F)(F)F)c1 (stereo not shown) [Example 81, 4-(1-methanesulfonyl-4,4-dimethyl-2-oxo-pyrrolidin-3-yloxy)-2-trifluoromethyl-benzonitrile] | – | – | – | – | 12% | 20 | 8% | – | – | – | 0.139 µM
CC(c1ccccc1)N1CC(C)(C)C(Oc2ccc(C#N)cc2Cl)C1=O (stereo not shown) [Example 109] | – | – | – | – | 64% | 116 | 52% | – | – | – | 0.203 µM
